Numbered stars: 1 amine (or outer) side, 2 acyl side, 3 side chain; on linkers, the order of the positions; unused ones are H or OH. Bridge positions count the residues as written; N and C are the ends. Square brackets hold non-standard residues; d marks the D form. Peptide text beside a SMILES is read from it. ξ: configuration not given here. Ala(piperidin-4-yl) = O=C([C@H](CC1CCN([*:3])CC1)N[*:1])[*:2]; Gly(1-amidinopiperidin-4-yl) = N=C(N)N1CCC([C@H](N)C(=O)O)CC1; X16 = O=C([C@H](Cc1ccc2cnccc2c1)N[*:1])[*:2]; X23 = O=C([C@H](Cc1cc2ccccc2cn1)N[*:1])[*:2]; X27 = O=C([C@H](Cc1ccc2ncccc2c1)N[*:1])[*:2]; Phe(4-CH2NH2) = NCc1ccc(C[C@H](N)C(=O)O)cc1; Bip = N[C@@H](Cc1ccc(-c2ccccc2)cc1)C(=O)O; X41 = O=C([C@H](CC1CCCNC1)N[*:1])[*:2]; 3Pal = N[C@@H](Cc1cccnc1)C(=O)O; 4Pal = N[C@@H](Cc1ccncc1)C(=O)O; Cha = N[C@@H](CC1CCCCC1)C(=O)O; Cit = NC(=O)NCCC[C@H](N)C(=O)O; Ile(3ξ) = CCC(C)[C@H](N)C(=O)O; Thr(3ξ) = CC(O)[C@H](N)C(=O)O; Dap(Me) = CNC[C@H](N)C(=O)O; NMeA = CN[C@@H](C)C(=O)O; Dab = NCC[C@H](N)C(=O)O
Target: T1, PE-labeled human PD-L1-Ig binding to Jurkat cell line over-expressing human PD-1 (Jurkat-PD-1) (Homo sapiens, UniProt Q15116)
T1 construct: expressed in transfected cells; host or cells: Jurkat
T1 sequence (Q15116 25-288): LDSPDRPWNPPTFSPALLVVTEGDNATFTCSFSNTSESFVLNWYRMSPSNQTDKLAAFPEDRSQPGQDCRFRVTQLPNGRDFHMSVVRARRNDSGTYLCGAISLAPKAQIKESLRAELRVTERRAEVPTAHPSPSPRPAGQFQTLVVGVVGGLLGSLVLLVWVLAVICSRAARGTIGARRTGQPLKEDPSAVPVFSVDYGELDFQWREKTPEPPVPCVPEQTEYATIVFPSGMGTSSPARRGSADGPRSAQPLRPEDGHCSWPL
Experiment: Jurkat-PD-1 Cell Binding High-Content Screening Assay (CBA): Method 1
Conditions: Jurkat-hPD-1 cells, PE-labeled PD-L1-Ig 20 nM final; read-out: Jurkat HPDL1 PD1 IC50 (uM) (Method 1)

| SMILES | IC50 |
| --- | --- |
| CC(C)C[C@@H]1NC(=O)[C@H](CCN)NC(=O)[C@@H](CC(C)C)NC(=O)[C@H](C)N(C)C(=O)[C@H](CCCNC(N)=O)NC(=O)[C@H](Cc2ccc(-c3ccccc3)cc2)NC(=O)[C@H](C(C)C)NC(=O)[C@H](Cc2c[nH]c3ccccc23)NC(=O)[C@H](CC(=O)O)NC(=O)[C@H](Cc2ccc(O)cc2)NC(=O)[C@H](Cc2ccc3cnccc3c2)NC(=O)CSC[C@@H](C(=O)N[C@@H](C)C(N)=O)NC(=O)[C@H](C(C)O)NC(=O)[C@H](C(C)C)NC1=O (stereo partly drawn) [Compound 2037] ({CH2CO}-[X16]YDWV[Bip][Cit][NMeA][dL][Dab]LV[Thr(3ξ)]CA-NH2; thioether N-14) | 0.02 µM |
| CC(C)C[C@@H]1NC(=O)[C@H](CCN)NC(=O)[C@@H](CC(C)C)NC(=O)[C@H](C)N(C)C(=O)[C@H](CCCNC(N)=O)NC(=O)[C@H](Cc2ccc(-c3ccccc3)cc2)NC(=O)[C@H](C(C)C)NC(=O)[C@H](Cc2c[nH]c3ccccc23)NC(=O)[C@H](CC(=O)O)NC(=O)[C@H](Cc2ccc(O)cc2)NC(=O)[C@H](C2CCN(C(=N)N)CC2)NC(=O)CSC[C@@H](C(=O)N[C@@H](C)C(N)=O)NC(=O)[C@H](C(C)O)NC(=O)[C@H](C(C)C)NC1=O (stereo partly drawn) [Compound 2038] ({CH2CO}-[Gly(1-amidinopiperidin-4-yl)]YDWV[Bip][Cit][NMeA][dL][Dab]LV[Thr(3ξ)]CA-NH2; thioether N-14) | 0.07 µM |
| CCC(C)[C@@H]1NC(=O)[C@H](Cc2ccc(-c3ccccc3)cc2)NC(=O)[C@H](C(C)C)NC(=O)[C@H](Cc2c[nH]c3ccccc23)NC(=O)[C@H](CC(=O)O)NC(=O)[C@H](Cc2ccc(O)cc2)NC(=O)[C@H](Cc2ccc3ncccc3c2)NC(=O)CSC[C@@H](C(=O)N[C@@H](C)C(N)=O)NC(=O)[C@H](C(C)O)NC(=O)[C@H](C(C)C)NC(=O)[C@H](CC2CCCCC2)NC(=O)[C@H](CCN)NC(=O)[C@@H](CC(C)C)NC(=O)[C@H](C)N(C)C1=O (stereo partly drawn) [Compound 2045] ({CH2CO}-[X27]YDWV[Bip][Ile(3ξ)][NMeA][dL][Dab][Cha]V[Thr(3ξ)]CA-NH2; thioether N-14) | 0.01 µM |
| CCC(C)[C@@H]1NC(=O)[C@H](Cc2ccc(-c3ccccc3)cc2)NC(=O)[C@H](C(C)C)NC(=O)[C@H](Cc2c[nH]c3ccccc23)NC(=O)[C@H](CC(=O)O)NC(=O)[C@H](Cc2ccc(O)cc2)NC(=O)[C@H](Cc2ccc3cnccc3c2)NC(=O)CSC[C@@H](C(=O)N[C@@H](C)C(N)=O)NC(=O)[C@H](C(C)O)NC(=O)[C@H](C(C)C)NC(=O)[C@H](CC2CCCCC2)NC(=O)[C@H](CCN)NC(=O)[C@@H](CC(C)C)NC(=O)[C@H](C)N(C)C1=O (stereo partly drawn) [Compound 2046] ({CH2CO}-[X16]YDWV[Bip][Ile(3ξ)][NMeA][dL][Dab][Cha]V[Thr(3ξ)]CA-NH2; thioether N-14) | 0.02 µM |
| CCC(C)[C@@H]1NC(=O)[C@H](Cc2ccc(-c3ccccc3)cc2)NC(=O)[C@H](C(C)C)NC(=O)[C@H](Cc2c[nH]c3ccccc23)NC(=O)[C@H](CC(=O)O)NC(=O)[C@H](Cc2ccc(O)cc2)NC(=O)[C@H](Cc2ccc(CN)cc2)NC(=O)CSC[C@@H](C(=O)N[C@@H](C)C(N)=O)NC(=O)[C@H](C(C)O)NC(=O)[C@H](C(C)C)NC(=O)[C@H](CC2CCCCC2)NC(=O)[C@H](CC(N)=O)NC(=O)[C@@H](CC(C)C)NC(=O)[C@H](C)N(C)C1=O (stereo partly drawn) [Compound 2047] ({CH2CO}-[Phe(4-CH2NH2)]YDWV[Bip][Ile(3ξ)][NMeA][dL]N[Cha]V[Thr(3ξ)]CA-NH2; thioether N-14) | 0.06 µM |
| CC(C)C[C@H]1NC(=O)[C@H](C)N(C)C(=O)[C@H](Cc2ccc(CN)cc2)NC(=O)[C@H](Cc2ccc(-c3ccccc3)cc2)NC(=O)[C@H](C(C)C)NC(=O)[C@H](Cc2c[nH]c3ccccc23)NC(=O)[C@H](CC(=O)O)NC(=O)[C@H](Cc2ccc(O)cc2)NC(=O)[C@H](Cc2ccncc2)NC(=O)CSC[C@@H](C(=O)N[C@@H](C)C(N)=O)NC(=O)[C@H](C(C)O)NC(=O)[C@H](C(C)C)NC(=O)[C@H](CC2CCCCC2)NC(=O)[C@H](CC(N)=O)NC1=O (stereo partly drawn) [Compound 2048] ({CH2CO}-[4Pal]YDWV[Bip][Phe(4-CH2NH2)][NMeA][dL]N[Cha]V[Thr(3ξ)]CA-NH2; thioether N-14) | 0.03 µM |
| CCC(C)[C@@H]1NC(=O)[C@H](Cc2ccc(-c3ccccc3)cc2)NC(=O)[C@H](C(C)C)NC(=O)[C@H](Cc2c[nH]c3ccccc23)NC(=O)[C@H](CC(=O)O)NC(=O)[C@H](Cc2ccc(O)cc2)NC(=O)[C@H](CNC)NC(=O)CSC[C@@H](C(=O)N[C@@H](C)C(N)=O)NC(=O)[C@H](C(C)O)NC(=O)[C@H](C(C)C)NC(=O)[C@H](CC2CCCCC2)NC(=O)[C@H](CCN)NC(=O)[C@@H](CC(C)C)NC(=O)[C@H](C)N(C)C1=O (stereo partly drawn) [Compound 2050] ({CH2CO}-[Dap(Me)]YDWV[Bip][Ile(3ξ)][NMeA][dL][Dab][Cha]V[Thr(3ξ)]CA-NH2; thioether N-14) | 0.01 µM |
| CCC(C)[C@@H]1NC(=O)[C@H](Cc2ccc(-c3ccccc3)cc2)NC(=O)[C@H](C(C)C)NC(=O)[C@H](Cc2c[nH]c3ccccc23)NC(=O)[C@H](CC(=O)O)NC(=O)[C@H](Cc2ccc(O)cc2)NC(=O)[C@H](CC2CCCNC2)NC(=O)CSC[C@@H](C(=O)N[C@@H](C)C(N)=O)NC(=O)[C@H](C(C)O)NC(=O)[C@H](C(C)C)NC(=O)[C@H](CC2CCCCC2)NC(=O)[C@H](CCN)NC(=O)[C@@H](CC(C)C)NC(=O)[C@H](C)N(C)C1=O (stereo partly drawn) [Compound 2051] ({CH2CO}-[X41]YDWV[Bip][Ile(3ξ)][NMeA][dL][Dab][Cha]V[Thr(3ξ)]CA-NH2; thioether N-14) | 0.01 µM |
| CCC(C)[C@@H]1NC(=O)[C@H](Cc2ccc(-c3ccccc3)cc2)NC(=O)[C@H](C(C)C)NC(=O)[C@H](Cc2c[nH]c3ccccc23)NC(=O)[C@H](CC(=O)O)NC(=O)[C@H](Cc2ccc(O)cc2)NC(=O)[C@H](Cc2cccnc2)NC(=O)CSC[C@@H](C(=O)N[C@@H](C)C(N)=O)NC(=O)[C@H](C(C)O)NC(=O)[C@H](C(C)C)NC(=O)[C@H](CC2CCCCC2)NC(=O)[C@H](CCN)NC(=O)[C@@H](CC(C)C)NC(=O)[C@H](C)N(C)C1=O (stereo partly drawn) [Compound 2052] ({CH2CO}-[3Pal]YDWV[Bip][Ile(3ξ)][NMeA][dL][Dab][Cha]V[Thr(3ξ)]CA-NH2; thioether N-14) | 0.02 µM |

The remaining compounds from weak to strong by IC50, led by results:

| IC50 | SMILES |
| --- | --- |
| 0.09 µM | CCC(C)[C@@H]1NC(=O)[C@H](Cc2ccc(-c3ccccc3)cc2)NC(=O)[C@H](C(C)C)NC(=O)[C@H](Cc2c[nH]c3ccccc23)NC(=O)[C@H](CC(=O)O)NC(=O)[C@H](Cc2ccc(O)cc2)NC(=O)[C@H](Cc2ccncc2)NC(=O)CSC[C@@H](C(=O)N[C@@H](C)C(N)=O)NC(=O)[C@H](C(C)O)NC(=O)[C@H](C(C)C)NC(=O)[C@H](CC2CCCCC2)NC(=O)[C@H](Cc2ccc(CN)cc2)NC(=O)[C@@H](CC(C)C)NC(=O)[C@H](C)N(C)C1=O (stereo partly drawn) [Compound 2049] ({CH2CO}-[4Pal]YDWV[Bip][Ile(3ξ)][NMeA][dL][Phe(4-CH2NH2)][Cha]V[Thr(3ξ)]CA-NH2; thioether N-14) |
| 0.08 µM | CNC[C@@H]1NC(=O)[C@@H](CC(C)C)NC(=O)[C@H](C)N(C)C(=O)[C@H](CCCNC(N)=O)NC(=O)[C@H](Cc2ccc(-c3ccccc3)cc2)NC(=O)[C@H](C(C)C)NC(=O)[C@H](Cc2c[nH]c3ccccc23)NC(=O)[C@H](CC(=O)O)NC(=O)[C@H](Cc2ccc(O)cc2)NC(=O)[C@H](CC(N)=O)NC(=O)CSC[C@@H](C(=O)N[C@@H](C)C(N)=O)NC(=O)[C@H](C(C)O)NC(=O)[C@H](C(C)C)NC(=O)[C@H](CC(C)C)NC1=O (stereo partly drawn) [Compound 2039] ({CH2CO}-NYDWV[Bip][Cit][NMeA][dL][Dap(Me)]LV[Thr(3ξ)]CA-NH2; thioether N-14) |
| 0.05 µM | CCC(C)[C@@H]1NC(=O)[C@H](Cc2ccc(-c3ccccc3)cc2)NC(=O)[C@H](C(C)C)NC(=O)[C@H](Cc2c[nH]c3ccccc23)NC(=O)[C@H](CC(=O)O)NC(=O)[C@H](Cc2ccc(O)cc2)NC(=O)[C@H](CC(N)=O)NC(=O)CSC[C@@H](C(=O)N[C@@H](C)C(N)=O)NC(=O)[C@H](C(C)O)NC(=O)[C@H](C(C)C)NC(=O)[C@H](CC(C)C)NC(=O)[C@H](CCN)NC(=O)[C@@H](CC(C)C)NC(=O)[C@H](C)N(C)C1=O (stereo partly drawn) [Compound 2040] ({CH2CO}-NYDWV[Bip][Ile(3ξ)][NMeA][dL][Dab]LV[Thr(3ξ)]CA-NH2; thioether N-14) |
| 0.02 µM | CNC[C@@H]1NC(=O)CSC[C@@H](C(=O)N[C@@H](C)C(N)=O)NC(=O)[C@H](C(C)O)NC(=O)[C@H](C(C)C)NC(=O)[C@H](CC(C)C)NC(=O)[C@H](CCN)NC(=O)[C@@H](CC(C)C)NC(=O)[C@H](C)N(C)C(=O)[C@H](C(C)C)NC(=O)[C@H](Cc2ccc(-c3ccccc3)cc2)NC(=O)[C@H](C(C)C)NC(=O)[C@H](Cc2c[nH]c3ccccc23)NC(=O)[C@H](CC(=O)O)NC(=O)[C@H](Cc2ccc(O)cc2)NC1=O (stereo partly drawn) [Compound 2041] ({CH2CO}-[Dap(Me)]YDWV[Bip]V[NMeA][dL][Dab]LV[Thr(3ξ)]CA-NH2; thioether N-14) |
| 0.02 µM | CCC(C)[C@@H]1NC(=O)[C@H](Cc2ccc(-c3ccccc3)cc2)NC(=O)[C@H](C(C)C)NC(=O)[C@H](Cc2c[nH]c3ccccc23)NC(=O)[C@H](CC(=O)O)NC(=O)[C@H](Cc2ccc(O)cc2)NC(=O)[C@H](Cc2cc3ccccc3cn2)NC(=O)CSC[C@@H](C(=O)N[C@@H](C)C(N)=O)NC(=O)[C@H](C(C)O)NC(=O)[C@H](C(C)C)NC(=O)[C@H](CC2CCCCC2)NC(=O)[C@H](CCN)NC(=O)[C@@H](CC(C)C)NC(=O)[C@H](C)N(C)C1=O (stereo partly drawn) [Compound 2044] ({CH2CO}-[X23]YDWV[Bip][Ile(3ξ)][NMeA][dL][Dab][Cha]V[Thr(3ξ)]CA-NH2; thioether N-14) |
| 0.01 µM | CCC(C)[C@@H]1NC(=O)[C@H](Cc2ccc(-c3ccccc3)cc2)NC(=O)[C@H](C(C)C)NC(=O)[C@H](Cc2c[nH]c3ccccc23)NC(=O)[C@H](CC(=O)O)NC(=O)[C@H](Cc2ccc(O)cc2)NC(=O)[C@H](CC2CCNCC2)NC(=O)CSC[C@@H](C(=O)N[C@@H](C)C(N)=O)NC(=O)[C@H](C(C)O)NC(=O)[C@H](C(C)C)NC(=O)[C@H](CC2CCCCC2)NC(=O)[C@H](CCN)NC(=O)[C@@H](CC(C)C)NC(=O)[C@H](C)N(C)C1=O (stereo partly drawn) [Compound 2043] ({CH2CO}-[Ala(piperidin-4-yl)]YDWV[Bip][Ile(3ξ)][NMeA][dL][Dab][Cha]V[Thr(3ξ)]CA-NH2; thioether N-14) |
